The values that follow come from US20070123555A1, “PREVENTION AND TREATMENT OF HEARING DISORDERS” (Cypress Bioscience, Inc., priority 2005, published 2007).

Series [1] has as its system noise-induced temporary threshold shift. The conditions noted are these: daily ingestion of 122 mg for 10 days; cited from earlier work.
A further series has as its system cochlear sensory cells. The settings on record: perfusion into the cochlea via osmotic minipump; cited from earlier work.
In series [2] the test system is CYP2D6. The conditions noted are these: in vivo; cited from earlier work.
Series [3] concerns permanent threshold shift. The conditions noted are these: 6.7 mmol daily, versus placebo (sodium aspartate); rifle noise six days per week for eight weeks; cited from earlier work.
Series [4] has as its system outer hair cells of cochlear explants. As to the kind of experiment: Cochlear explant cultures challenged with cisplatin, outer hair cell damage. It is filed as cell-based, Sprague-Dawley rats. The source says: Explants of sensory epithelium from the basal turn of postnatal day 5 (p5) Sprague-Dawley rats were isolated using the methods of Van De Water and Sobkowicz (Van d Water T., Ruben R. J. (1974) “Growth of the inner ear in organ culture,” Ann. Otol. Rhinol. Laryngol., 83:1-16; Sobkowicz H. M., Loftus J. M., Slapnick S. M. (1993) “Tissue culture of the organ of Corti.,” Acta. Suppl. 502:3-36). Explants were maintained in Dulbecco's Modified Eagle's medium with 10% fetal bovine serum and 30 U/ml penicillin. HEPES buffer was added to a concentration of 25 mM and the glucose concentration increased to 6 mg/ml to enhance neuronal survival. Each 15 mm dish containing 250 μl of medium was maintained in an incubator at 37° C. with 5% CO2 and 95% humidity.
Toxicity-inducers (gentamicin or cisplatin, 1-100 μM) were exposed to the medium 12-24 h following plating for 48 h. Concentrations of gentamicin or cisplatin were employed that produced approximately 50% loss of outer hair cells, which permitted for assessments of either increases or decreases in outer hair cell damage.
Test compounds were applied to the cultures for 12 h, and then challenged with medium containing gentamicin or cisplatin plus the test compound for an additional 48 h, followed by fixation and evaluation.
At the end of culture, free floating explants were fixed with 4% paraformaldehyde and 1% glutaraldehyde in phosphate-buffered saline. The explants were then permeabilized with 1 % Tween-20 in phosphate-buffered saline. The explants were then stained with conjugated phalloidin-rhodamine probe in phosphate-buffered saline, washed twice, and mounted between two cover slips in a 1:3 mixture of phosphate-buffered saline/glycerol. Explants were imaged by light and fluorescence microscopy and by laser confocal microscopy to assess the degree of damage to the outer hair cells.
The results of one such test, employing cisplatin as an ototoxic agent and nicergoline as a test compound, are shown in FIG. 1. The control cultures contained no cisplatin and no nicergoline. […]

The target in series [5] is CYP2D6 (Homo sapiens, UniProt P10635). The conditions noted are these: cited from earlier work.
CYP2D6 (Homo sapiens, UniProt P10635), sequence (P10635 whole entry): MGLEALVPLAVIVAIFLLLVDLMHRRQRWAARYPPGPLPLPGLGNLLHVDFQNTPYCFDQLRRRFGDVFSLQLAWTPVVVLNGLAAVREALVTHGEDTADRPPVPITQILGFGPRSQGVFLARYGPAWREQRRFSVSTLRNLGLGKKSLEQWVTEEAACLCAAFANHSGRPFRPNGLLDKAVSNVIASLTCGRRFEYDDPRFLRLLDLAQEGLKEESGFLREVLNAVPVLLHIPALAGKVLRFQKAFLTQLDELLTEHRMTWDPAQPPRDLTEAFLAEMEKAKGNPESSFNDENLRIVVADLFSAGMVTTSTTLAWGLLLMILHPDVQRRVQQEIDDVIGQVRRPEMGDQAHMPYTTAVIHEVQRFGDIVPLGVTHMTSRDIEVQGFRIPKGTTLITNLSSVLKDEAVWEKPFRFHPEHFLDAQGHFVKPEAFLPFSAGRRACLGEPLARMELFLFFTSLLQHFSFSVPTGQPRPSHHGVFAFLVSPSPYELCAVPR
For another series, the system named is cochlea. The conditions noted are these: local administration; cited from earlier work.

SMILES strings stand for the structures. Entries after “also recorded” stand apart in the source; their conditions may differ. Read-outs that look alike come from different tables or passages of the source.

With `[Mg]` [magnesium], in series [1], the “effect on noise-induced temporary threshold shift” value is on record as “protect against noise-induced temporary threshold shift”.
`Nc1nc2ccc(OC(F)(F)F)cc2s1` [riluzole, 2-amino-6-trofluoromethoxybenzothiazole]: the “effect on cochlear damage after acoustic trauma” value with cochlear sensory cells was “prevents mitochondrial damage and subsequent translocation of cytochrome c, DNA fragmentation and hair cell degeneration”.
Take `CO[C@]12C[C@@H](CO)CN(C)[C@@H]1Cc1c[nH]c3cccc2c13` [MDL, 10-α-methoxy-9,9-dihydrolysergol]: the “level in plasma after nicergoline dosing” value in the series on CYP2D6 [2] is recorded as “low concentration of MDL”.
For `N[C@@H](CC(=O)[O-])C(=O)[O-].[Mg+2]` [magnesium aspartate], in series [3], the “effect on permanent threshold shift” value is recorded as “significant effect on permanent threshold shift”.
Turning to `CO[C@]12C[C@@H](COC(=O)c3cncc(Br)c3)CN(C)[C@@H]1Cc1cn(C)c3cccc2c13` [nicergoline], in series [4] (0 μg/ml cisplatin, 10 μM nicergoline, 5 cultures), the “concentrations at which nicergoline itself is non-toxic to cochlear cultures” value is on record as “up to 10 μM”. The “protection against toxic effects of cisplatin” value in series [4] (2 μg/ml cisplatin, nicergoline 10 nM, 1 μM or 10 μM, FIG. 1) was “protects cochlear ear explants from chemically-induced damage by cisplatin; also recorded: exerting protection against the toxic effects of cisplatin at all tested concentrations”. For the same compound, the “concentration providing maximum protection from cisplatin-induced cell death” value in series [4] (cisplatin 2 μg/ml (sentence prints 2 μM), test compound 12 h, then with cisplatin 48 h, 5 cultures each) is “about 1 μM”. Moreover, the “level in blood plasma after nicergoline dosing” value on CYP2D6 [5] (individuals having normal CYP2D6 function) is reported as “almost no detectable nicergoline in blood plasma”.
For the compound `CCN(CC)CCn1c(=O)c(Cc2ccc(OC)cc2)nc2ccccc21` [caroverine, 1-[2-(diethylamino)ethyl]-3-[(4-methoxyphenyl)methyl]-2-(1H)-quinoxalinone], in the series on cochlea, the “protection of cochlea from noise trauma” value was “protection of cochlea from noise trauma”.
`CO[C@]12C[C@@H](CO)CN(C)[C@@H]1Cc1cn(C)c3cccc2c13` [MMDL, 1-methyl-10-α-methoxy-9,10-dihydrolysergol]: the “level in plasma after nicergoline dosing” value with CYP2D6 [2] is reported as “relatively high concentrations of MMDL”. For the same compound, the “level in blood plasma after nicergoline dosing” value at CYP2D6 [5] (in vivo) was “very little MMDL”.
